One test relates to Rv0678_2 mutant. Type of test: cell-based, Mycobacterium tuberculosis.
The next test concerns Rv0678_J4 mutant. It is filed as cell-based, Mycobacterium tuberculosis.

≈ marks a conversion by molar mass, not a printed value.

In general, MIC refers to the lowest concentration that inhibits growth of the organism. As to `CCc1nc2ccc(Cl)cn2c1C(=O)NCc1ccc(N2CCC(c3ccc(OC(F)(F)F)cc3)CC2)cc1` [Telacebec, telacebec], the MIC against Rv0678_2 mutant was 8 ng/mL (≈ 0.0144 µM); in the test with Rv0678_J4 mutant it was 4 ng/mL (≈ 0.00718 µM).
